One assay relates to NCIH460 (lung) cells. In words: Anti-cancer screen (MTT), NCIH460. Type of assay: cell-based. The following applies: Homo sapiens, NCI-H460, NCIH460, 48 hours, MTT; for GI50: read-out: Cell growth inhibition NCIH460 (Lung) GI50; for LC50: read-out: Cell growth inhibition NCIH460 (Lung) LC50; for IC (TGI): read-out: Cell growth inhibition NCIH460 (Lung) TGI. The gist of the method:
(§1)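 Seeding at 5×10^4 cells/mL preceded 24 h culture, after which compounds diluted from DMSO stocks were added at final 0.01, 0.1, 1, 10 and 100 μM for 48 h. Viability was then read by MTT (3 h, 37 °C) at A570.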

The next assay relates to HCT 116 (colon) cells. In words: Anti-cancer screen (MTT), HCT 116. Type of assay: cell-based. The following applies: Homo sapiens, HCT-116, HCT116, 48 hours, MTT; for GI50: read-out: Cell growth inhibition HCT116 (Colon) GI50; for CC50: read-out: Cell growth inhibition HCT116 (Colon) LC50; for IC (TGI): read-out: Cell growth inhibition HCT116 (Colon) TGI. The essentials:
as §1

The subject of a further assay is U251 (glioma) cells. In words: Anti-cancer screen (MTT), U251. The note with it: Homo sapiens, U-251, U251, 48 hours, MTT; for GI50: read-out: Cell growth inhibition U251 (Glioma) GI50; for LC50 (concentration giving 50% net cell kill relative to the time-zero cell count): read-out: Cell growth inhibition U251 (Glioma) LC50; for IC (TGI): read-out: Cell growth inhibition U251 (Glioma) TGI. Type of assay: cell-based. The gist of the method: as §1

Assay [1] has as its system NCIH460, HCT116 and U251 cells. In words: Anti-cancer screen, mean GI50 over cell lines. The note with it: mean over cell lines; read-out: Cell growth inhibition Mean GI50. Type of assay: cell-based. The gist of the method:
as §1

For assay [2], the system named is HDAC (Mouse Liver Extract). In words: HDAC inhibition assay using Boc-Lys(Ac)-AMC substrate. Type of assay: biochemical. The following applies: mouse liver enzyme. The gist of the method:
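Released AMC measured at 360 nm excitation, 460 nm emission after 15-30 min trypsin development at 37° C. Preceding deacetylation: mouse liver extract with acetylated-lysine AMC substrate, 30 min at 37° C after 5-min preincubation; blanks were buffer alone and substrate alone.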

For orientation: GI50 means the concentration giving 50% growth inhibition. A word on the LC50: it is the concentration lethal to half of the exposed cells or organisms. One may read the IC50 as the midpoint of a concentration-inhibition curve. Low values mean greater potency in that assay, high ones weaker potency in that assay. As to `CSc1ccc(/C=C(/C(=O)NCCCCCC(=O)NO)c2ccccc2Cl)cc1` [Compound 95, 6-(2-(2-Chlorophenyl)-3-(4-methylthiophenyl)acrylamido)-N-hydroxy hexanamide], in the assay with NCIH460 (lung) cells, the GI50 was determined as 6 µM, the LC50 worked out at 72 µM and the IC (TGI) was found to be 40 µM. For the same compound, in the assay on HCT 116 (colon) cells, the GI50 turned out to be 3 µM, the CC50 worked out at 66 µM and the IC (TGI) was 14 µM. Further, in the assay with U251 (glioma) cells, the GI50 turned out to be 0.1 µM, the LC50 (concentration giving 50% net cell kill relative to the time-zero cell count) amounted to 64 µM and the IC (TGI) was found to be 11 µM. Besides, the GI50 in assay [1] was determined as 3 µM. For the same compound, in assay [2], the “HDAC inhibition % (1 μM)” value is on record as 60.8%, the “HDAC inhibition % (10 μM)” value amounted to 92.0% and 0.01 µM corresponded to half-maximal inhibition (IC50).

With `COc1ccc(/C=C(/C(=O)NCc2ccc(/C=C/C(=O)NO)cc2)c2ccc(F)cc2)cc1OC` [Compound 77, (1E)-N-(4-(3-(Hydroxyamino)-3-oxoprop-1-enyl)benzyl)-2-(4-fluorophenyl)-3-(3,4-dimethoxyphenyl)acrylamide], in the assay on NCIH460 (lung) cells, the GI50 was found to be 2 µM, the LC50 was greater than 100 µM and the IC (TGI) stood at 70 µM. Moreover, in the assay on HCT 116 (colon) cells, the GI50 came out at 0.5 µM, the CC50 worked out at 50 µM and the IC (TGI) came to 6 µM. Moreover, in the assay with U251 (glioma) cells, the GI50 turned out to be 2.6 µM, the LC50 (concentration giving 50% net cell kill relative to the time-zero cell count) is greater than 100 µM and the IC (TGI) was 19 µM. Besides, the GI50 in assay [1] stood at 1.7 µM. Also, in assay [2], the “HDAC inhibition % (1 μM)” value was found to be 90.6%, the “HDAC inhibition % (10 μM)” value stood at 98.5% and the IC50 was 0.05 µM.

`O=C(CCCCCNC(=O)/C(=C/c1c(F)cc(F)cc1F)c1ccc(F)cc1)NO` [Compound 89, 6-(2-(4-Fluorophenyl)-3-(2,4,6-trifluorophenyl)acrylamido)-N-hydroxy hexanamide]: in the assay on NCIH460 (lung) cells, the GI50 turned out to be 3 µM, the LC50 was found to be 45 µM and the IC (TGI) amounted to 13 µM. In the assay on HCT 116 (colon) cells, the GI50 turned out to be 4 µM, the CC50 came to 83 µM and the IC (TGI) worked out at 10 µM. In the assay with U251 (glioma) cells, the GI50 was 4 µM, the LC50 (concentration giving 50% net cell kill relative to the time-zero cell count) was 81 µM and the IC (TGI) was 6.7 µM. For the same compound, the GI50 in assay [1] came to 3.7 µM. Moreover, in assay [2], the “HDAC inhibition % (1 μM)” value came out at 64.9%, the “HDAC inhibition % (10 μM)” value is 97.6% and it took 0.03 µM to reach half-maximal inhibition (IC50).

`COC(=O)c1ccc(/C=C(/C(=O)NCc2ccc(C(=O)Nc3ccccc3N)cc2)c2cccs2)cc1` [Compound 36, N-(2-Aminophenyl)-4-((3-(4-carbmethoxyphenyl)-2-(thiophen-2-yl)acrylamido)methyl)benzamide]: in the assay with NCIH460 (lung) cells, the GI50 came out at 20 µM, the LC50 was greater than 100 µM and the IC (TGI) was greater than 100 µM. Besides, in the assay with HCT 116 (colon) cells, the GI50 is 0.7 µM, the CC50 is greater than 100 µM and the IC (TGI) worked out at 35 µM. In the assay on U251 (glioma) cells, the GI50 stood at 18 µM, the LC50 (concentration giving 50% net cell kill relative to the time-zero cell count) was 90 µM and the IC (TGI) was determined as 50 µM. For the same compound, the GI50 in assay [1] is 12.9 µM. In assay [2], the “HDAC inhibition % (1 μM)” value is on record as 30.5% and the “HDAC inhibition % (10 μM)” value worked out at 31.9%.

On to `COc1cc(/C=C(/C(=O)NCc2ccc(C(=O)Nc3ccccc3N)cc2)c2ccc(F)cc2)ccc1F` [Compound 20, N-(2-Aminophenyl)-4-((3-(4-fluoro-3-methoxyphenyl)-2-(4-fluorophenyl)acrylamido)methyl)benzamide], for which, in the assay on NCIH460 (lung) cells, the GI50 was determined as 7.5 µM and the IC (TGI) amounted to 18 µM. Moreover, in the assay on HCT 116 (colon) cells, the GI50 was 0.3 µM, the CC50 came out at 80 µM and the IC (TGI) came to 20 µM. Moreover, in the assay on U251 (glioma) cells, the GI50 is 1.7 µM and the IC (TGI) was 3.5 µM. In addition, in assay [1], the GI50 was found to be 3.2 µM. For the same compound, in assay [2], the “HDAC inhibition % (1 μM)” value was found to be 45.1% and the “HDAC inhibition % (10 μM)” value turned out to be 46.2%.

Source of the values: patent US8476255B2, “Histone deacetylase inhibitors” (Orchid Chemicals & Pharmaceuticals Limited, priority 2007, dated 2013).
